Experiments:
Type in all cases: in vivo
[1] = tested on: velvetleaf (Abutilion theophrasti); assay: Preemergence herbicidal activity, velvetleaf; conditions: soil spray, visual after 3 weeks, 0 no injury, 100 complete kill or no germination
Protocol: (§1) The soil matrix was contained in plastic pots with a surface area of 161 square centimeters. When required to ensure good germination and healthy plants, a fungicide treatment and/or other chemical or physical treatment was applied. A weighed amount, determined by the highest rate to be tested, of each test compound was placed in a 20 mL glass vial and was dissolved in 8 mL of a 97:3 v/v (volume/volume) mixture of acetone and dimethyl sulfoxide to obtain concentrated stock solutions. […] The stock solutions obtained were diluted with a 99.9:0.1 mixture of water and Tween® 155 surfactant (ethoxylated sorbitan fatty acid ester) to obtain application solutions of known concentration. The solutions containing the highest concentration to be tested were prepared by diluting 4 mL aliquots of the stock solution with 8.5 mL of the mixture and lower concentrations were prepared by dilution of appropriate smaller portions of the stock solution. A 2.5 mL aliquot of each solution of known concentration was sprayed evenly onto the soil of each seeded pot using a Cornwall 5.0 mL glass syringe fitted with a TeeJet TN-3 hollow cone nozzle to obtain thorough coverage of the soil in each pot. Control pots were sprayed in the same manner with the aqueous mixture. A highest application rate of 4.48 kg/ha is achieved when 50 mg of test compound is employed. The treated pots and control pots were placed in a greenhouse with an approximately 15 hr photoperiod which was maintained at about 23-29° C. during the day and 22-28° C. during the night. Nutrients and water were added on a regular basis and supplemental lighting was provided with overhead metal halide 1000 Watt lamps as necessary. The water was added by top-irrigation. After 3 weeks the condition of the test plants that germinated and grew as compared with that of the untreated plants that germinated and grew was determined visually and scored on a scale of 0 to 100 percent where 0 corresponds to no injury and 100 corresponds to complete kill or no germination.

[2] = tested on: viola (Viola tricolor); assay: Postemergence herbicidal activity, viola; conditions: foliar spray, visual after 2 weeks, 0 no injury, 100 complete kill
Protocol: (§2) Seeds of the desired test plant species were planted in Grace-Sierra MetroMix® 306 planting mixture, which typically has a pH of 6.0 to 6.8 and an organic matter content of about 30 percent, in plastic pots with a surface area of 64 square centimeters. When required to ensure good germination and healthy plants, a fungicide treatment and/or other chemical or physical treatment was applied. The plants were grown for 7-21 days in a greenhouse with an approximately 15 hr photoperiod which was maintained at about 23-29° C. during the day and 22-28° C. during the night. Nutrients and water were added on a regular basis and supplemental lighting was provided with overhead metal halide 1000 Watt lamps as necessary. The plants were employed for testing when they reached the first or second true leaf stage. A weighed amount of each test compound, determined by the highest rate to be tested, was placed in a 20 mL glass vial and was dissolved in 4 mL of a 97:3 v/v (volume/volume) mixture of acetone and dimethyl sulfoxide to obtain concentrated stock solutions. […] The concentrated stock solutions obtained were diluted with an aqueous mixture containing acetone, water, iso-propyl alcohol, dimethyl sulfoxide, Atplus 411F crop oil concentrate, and Triton X-155 surfactant (methylenebisdiamyl phenoxy polyethoxy ethanol) in a 48.5:39:10:1.5:1.0:0.02 v/v ratio to obtain spray solutions of known concentration. The solutions containing the highest concentration to be tested were prepared by diluting 2 mL aliquots of the stock solution with 13 mL of the mixture and lower concentrations were prepared by dilution of appropriate smaller portions of the stock solution. Approximately 1.5 mL aliquots of each solution of known concentration were sprayed evenly onto each of the test plant pots using a DeVilbiss atomizer driven by compressed air pressure of 2 to 4 psi (140 to 280 kilopascals) to obtain thorough coverage of each plant. Control plants were sprayed in the same manner with the aqueous mixture. In this test an application rate of 1 ppm results in the application of approximately 1 g/ha. The treated plants and control plants were placed in a greenhouse as described above and watered by sub-irrigation to prevent wash-off of the test compounds. After 2 weeks the condition of the test plants as compared with that of the untreated plants was determined visually and scored on a scale of 0 to 100 percent where 0 corresponds to no injury and 100 corresponds to complete kill.

[3] = tested on: velvetleaf (Abutilion theophrasti); assay: Postemergence herbicidal activity, velvetleaf; conditions: foliar spray, visual after 2 weeks, 0 no injury, 100 complete kill
Protocol: as §2

[4] = tested on: wild oats (Avena fatua); assay: Preemergence herbicidal activity, wild oats; conditions: soil spray, visual after 3 weeks, 0 no injury, 100 complete kill or no germination
Protocol: as §1

[5] = tested on: Rox orange sorghum (Sorghum bicolor); assay: Preemergence herbicidal activity, Rox orange sorghum; conditions: soil spray, visual after 3 weeks, 0 no injury, 100 complete kill or no germination
Protocol: as §1

[6] = tested on: lambsquarters (Chenopodium album); assay: Postemergence herbicidal activity, lambsquarters; conditions: foliar spray, visual after 2 weeks, 0 no injury, 100 complete kill
Protocol: as §2

[7] = tested on: wild oats (Avena fatua); assay: Postemergence herbicidal activity, wild oats; conditions: foliar spray, visual after 2 weeks, 0 no injury, 100 complete kill
Protocol: as §2

[8] = tested on: giant foxtail (Setaria faberi); assay: Preemergence herbicidal activity, giant foxtail; conditions: soil spray, visual after 3 weeks, 0 no injury, 100 complete kill or no germination
Protocol: as §1

[9] = tested on: cocklebur (Xanthium strumarium); assay: Preemergence herbicidal activity, cocklebur; conditions: soil spray, visual after 3 weeks, 0 no injury, 100 complete kill or no germination
Protocol: as §1

[10] = tested on: morningglory (Ipomoea hederacea); assay: Postemergence herbicidal activity, morningglory; conditions: foliar spray, visual after 2 weeks, 0 no injury, 100 complete kill
Protocol: as §2

[11] = tested on: wild poinsettia (Euphorbia heterophylla); assay: Preemergence herbicidal activity, wild poinsettia; conditions: soil spray, visual after 3 weeks, 0 no injury, 100 complete kill or no germination
Protocol: as §1

[12] = tested on: cocklebur (Xanthium strumarium); assay: Postemergence herbicidal activity, cocklebur; conditions: foliar spray, visual after 2 weeks, 0 no injury, 100 complete kill
Protocol: as §2

[13] = tested on: blackgrass (Alopecurus myosuroides); assay: Preemergence herbicidal activity, blackgrass; conditions: soil spray, visual after 3 weeks, 0 no injury, 100 complete kill or no germination
Protocol: as §1

[14] = tested on: crabgrass (Digitaria sanguinalis); assay: Preemergence herbicidal activity, crabgrass; conditions: soil spray, visual after 3 weeks, 0 no injury, 100 complete kill or no germination
Protocol: as §1

[15] = tested on: lambsquarters (Chenopodium album); assay: Preemergence herbicidal activity, lambsquarters; conditions: soil spray, visual after 3 weeks, 0 no injury, 100 complete kill or no germination
Protocol: as §1

[16] = tested on: barnyardgrass (Echinochloa crus-galli); assay: Preemergence herbicidal activity, barnyardgrass; conditions: soil spray, visual after 3 weeks, 0 no injury, 100 complete kill or no germination
Protocol: as §1

[17] = tested on: Rox orange sorghum (Sorghum bicolor); assay: Postemergence herbicidal activity, Rox orange sorghum; conditions: foliar spray, visual after 2 weeks, 0 no injury, 100 complete kill
Protocol: as §2

[18] = tested on: pigweed (Amaranthus retroflexus); assay: Preemergence herbicidal activity, pigweed; conditions: soil spray, visual after 3 weeks, 0 no injury, 100 complete kill or no germination
Protocol: as §1

[19] = tested on: morningglory (Ipomoea hederacea); assay: Preemergence herbicidal activity, morningglory; conditions: soil spray, visual after 3 weeks, 0 no injury, 100 complete kill or no germination
Protocol: as §1

[20] = tested on: giant foxtail (Setaria faberi); assay: Postemergence herbicidal activity, giant foxtail; conditions: foliar spray, visual after 2 weeks, 0 no injury, 100 complete kill
Protocol: as §2

[21] = tested on: chickweed (Stellaria media); assay: Postemergence herbicidal activity, chickweed; conditions: foliar spray, visual after 2 weeks, 0 no injury, 100 complete kill
Protocol: as §2

[22] = tested on: blackgrass (Alopecurus myosuroides); assay: Postemergence herbicidal activity, blackgrass; conditions: foliar spray, visual after 2 weeks, 0 no injury, 100 complete kill
Protocol: as §2

[23] = tested on: pigweed (Amaranthus retroflexus); assay: Postemergence herbicidal activity, pigweed; conditions: 7.8 ppm, foliar spray, visual after 2 weeks; 0 no injury, 100 complete kill
Protocol: as §2

COc1sccc1S(=O)(=O)Nc1nc2c(OC)cnc(OC)n2n1 [Compound 8]
ABUTH preemergence injury score 0-100 ([1]; 8.8 g/Ha): 70% | VIOTR postemergence injury score 0-100 ([2]; 7.8 ppm): 75% | ABUTH postemergence injury score 0-100 ([3]; 7.8 ppm): 75% | AVEFA preemergence injury score 0-100 ([4]; 8.8 g/Ha): 80% | SORBI preemergence injury score 0-100 ([5]; 8.8 g/Ha): 70% | CHEAL postemergence injury score 0-100 ([6]; 7.8 ppm): 70% | AVEFA postemergence injury score 0-100 ([7]; 7.8 ppm): 85% | SETFA preemergence injury score 0-100 ([8]; 8.8 g/Ha): 60% | XANST preemergence injury score 0-100 ([9]; 8.8 g/Ha): 80% | IPOHE postemergence injury score 0-100 ([10]; 7.8 ppm): 60% | EPHHL preemergence injury score 0-100 ([11]; 8.8 g/Ha): 85% | XANST postemergence injury score 0-100 ([12]; 7.8 ppm): 60% | ALOMY preemergence injury score 0-100 ([13]; 8.8 g/Ha): 85% | DIGSA preemergence injury score 0-100 ([14]; 8.8 g/Ha): 50% | CHEAL preemergence injury score 0-100 ([15]; 8.8 g/Ha): 70% | ECHCG preemergence injury score 0-100 ([16]; 8.8 g/Ha): 25% | SORBI postemergence injury score 0-100 ([17]; 7.8 ppm): 95% | AMARE preemergence injury score 0-100 ([18]; 8.8 g/Ha): 80% | IPOHE preemergence injury score 0-100 ([19]; 8.8 g/Ha): 75% | SETFA postemergence injury score 0-100 ([20]; 7.8 ppm): 60% | STEME postemergence injury score 0-100 ([21]; 7.8 ppm): 95% | ALOMY postemergence injury score 0-100 ([22]; 7.8 ppm): 50%

COc1sccc1S(=O)(=O)Nc1nc2c(C)cnc(OC)n2n1 [Compound 9]
ABUTH preemergence injury score 0-100 ([1]; 70 g/Ha): 30% | VIOTR postemergence injury score 0-100 ([2]; 62 ppm): 60% | ABUTH postemergence injury score 0-100 ([3]; 62 ppm): 70% | AVEFA preemergence injury score 0-100 ([4]; 70 g/Ha): 30% | SORBI preemergence injury score 0-100 ([5]; 70 g/Ha): 50% | CHEAL postemergence injury score 0-100 ([6]; 62 ppm): 40% | AVEFA postemergence injury score 0-100 ([7]; 62 ppm): 10% | SETFA preemergence injury score 0-100 ([8]; 70 g/Ha): 15% | XANST preemergence injury score 0-100 ([9]; 70 g/Ha): 25% | IPOHE postemergence injury score 0-100 ([10]; 62 ppm): 70% | EPHHL preemergence injury score 0-100 ([11]; 70 g/Ha): 10% | XANST postemergence injury score 0-100 ([12]; 62 ppm): 60% | ALOMY preemergence injury score 0-100 ([13]; 70 g/Ha): 100% | DIGSA preemergence injury score 0-100 ([14]; 70 g/Ha): 10% | ECHCG preemergence injury score 0-100 ([16]; 70 g/Ha): 0% | SORBI postemergence injury score 0-100 ([17]; 62 ppm): 70% | AMARE preemergence injury score 0-100 ([18]; 70 g/Ha): 40% | IPOHE preemergence injury score 0-100 ([19]; 70 g/Ha): 10% | SETFA postemergence injury score 0-100 ([20]; 62 ppm): 20% | STEME postemergence injury score 0-100 ([21]; 62 ppm): 95% | ALOMY postemergence injury score 0-100 ([22]; 62 ppm): 60%

CCOc1cscc1S(=O)(=O)Nc1nc2c(OC)cnc(OC)n2n1 [Compound 13]
ABUTH preemergence injury score 0-100 ([1]; 4.4 g/Ha): 80% | VIOTR postemergence injury score 0-100 ([2]; 7.8 ppm): 75% | ABUTH postemergence injury score 0-100 ([3]; 7.8 ppm): 95% | AVEFA preemergence injury score 0-100 ([4]; 4.4 g/Ha): 100% | SORBI preemergence injury score 0-100 ([5]; 4.4 g/Ha): 100% | CHEAL postemergence injury score 0-100 ([6]; 7.8 ppm): 90% | AVEFA postemergence injury score 0-100 ([7]; 7.8 ppm): 85% | SETFA preemergence injury score 0-100 ([8]; 4.4 g/Ha): 100% | XANST preemergence injury score 0-100 ([9]; 4.4 g/Ha): 80% | IPOHE postemergence injury score 0-100 ([10]; 7.8 ppm): 75% | EPHHL preemergence injury score 0-100 ([11]; 4.4 g/Ha): 100% | AMARE postemergence injury score 0-100 [23]: 100% | XANST postemergence injury score 0-100 ([12]; 7.8 ppm): 95% | ALOMY preemergence injury score 0-100 ([13]; 4.4 g/Ha): 100% | DIGSA preemergence injury score 0-100 ([14]; 4.4 g/Ha): 100% | CHEAL preemergence injury score 0-100 ([15]; 4.4 g/Ha): 100% | ECHCG preemergence injury score 0-100 ([16]; 4.4 g/Ha): 100% | SORBI postemergence injury score 0-100 ([17]; 7.8 ppm): 95% | AMARE preemergence injury score 0-100 ([18]; 4.4 g/Ha): 90% | IPOHE preemergence injury score 0-100 ([19]; 4.4 g/Ha): 90% | SETFA postemergence injury score 0-100 ([20]; 7.8 ppm): 95% | STEME postemergence injury score 0-100 ([21]; 7.8 ppm): 95% | ALOMY postemergence injury score 0-100 ([22]; 7.8 ppm): 80%

From patent US6645918B1, “N-([1,2,4]triazoloazinyl)thiophenesulfonamide compounds and their use as herbicides” (Dow AgroSciences LLC, priority 2000, dated 2003)
